Legend:
[1] = tested on: mortality induced by bicucullin; assay: Protection against mortality induced by intravenous bicucullin (anti-convulsive activity); type: in vivo; conditions: Mus musculus, ip; mice, compound i.p.; intravenous injection of 0.7 mg/kg of bicucullin; read-out: ED 50 against mortality induced by bicucullin
[2] = Acute toxicity, intraperitoneal, method of Miller and Tainter; conditions: mouse, in vivo, ip, mice, read-out: Acute toxicity LD 50
Description: Acute toxicity is assessed intraperitoneally on mice according to the method of Miller and Tainter described in Proc. Soc. Exp. Biol. Med. 57, 261, (1944).

SMILES | ED50 [1] [mg/kg] | LD50 [2] [mg/kg]
CCC(C)(C)c1nn[nH]n1 [compound 1] | 100 | > 400
CCCCC(C)(CC)c1nn[nH]n1 (centres unmarked) [compound 3] | 120 | 320
CCCC(CCC)(CCC)c1nn[nH]n1 [compound 5] | 44 | 280
CCCC(CCC)c1nn[nH]n1 [compound 6, [1-(1-n propyl)nbutyl] tetrazole] | 135 | > 400
